According to ChEMBL document CHEMBL1671627, “Increasing trends in antimicrobial resistance among clinically important anaerobes and Bacteroides fragilis isolates causing nosocomial infections: emerging resistance to carbapenems” (2008):
≈ marks a conversion by molar mass, not a printed value.

Tests used:
Bacteroides fragilis [1] = assay: Antibacterial activity against Bacteroides fragilis assessed as susceptible isolates by CLSI agar dilution method; format: functional
Bacteroides fragilis [2] = assay: Antibacterial activity against Bacteroides fragilis assessed as resistant isolates by CLSI agar dilution method; format: functional
[3] = system: Bacteroides thetaiotaomicron; assay: Antibacterial activity against beta-lactamase producing Bacteroides thetaiotaomicron assessed as susceptible isolates by CLSI agar dilution method; format: functional
[4] = system: Bacteroides thetaiotaomicron; assay: Antibacterial activity against beta-lactamase producing Bacteroides thetaiotaomicron assessed as resistant isolates by CLSI agar dilution method; format: functional
Phocaeicola vulgatus [5] = assay: Antibacterial activity against beta-lactamase producing Bacteroides vulgatus by CLSI agar dilution method; format: functional
Phocaeicola vulgatus [6] = assay: Antibacterial activity against beta-lactamase producing Bacteroides vulgatus assessed as susceptible isolates by CLSI agar dilution method; format: functional
Phocaeicola vulgatus [7] = assay: Antibacterial activity against beta-lactamase producing Bacteroides vulgatus assessed as resistant isolates by CLSI agar dilution method; format: functional
Bacteroides uniformis [8] = assay: Antibacterial activity against beta-lactamase producing Bacteroides uniformis by CLSI agar dilution method; format: functional
Bacteroides uniformis [9] = assay: Antibacterial activity against beta-lactamase producing Bacteroides uniformis assessed as susceptible isolates by CLSI agar dilution method; format: functional
Bacteroides uniformis [10] = assay: Antibacterial activity against beta-lactamase producing Bacteroides uniformis assessed as resistant isolates by CLSI agar dilution method; format: functional
Bacteroides caccae [11] = assay: Antibacterial activity against beta-lactamase producing Bacteroides caccae by CLSI agar dilution method; format: functional
Bacteroides caccae [12] = assay: Antibacterial activity against beta-lactamase producing Bacteroides caccae assessed as susceptible isolates by CLSI agar dilution method; format: functional
Bacteroides caccae [13] = assay: Antibacterial activity against beta-lactamase producing Bacteroides caccae assessed as resistant isolates by CLSI agar dilution method; format: functional
Fusobacterium varium [14] = assay: Antibacterial activity against Fusobacterium varium by CLSI agar dilution method; format: functional
Fusobacterium nucleatum [15] = assay: Antibacterial activity against Fusobacterium nucleatum by CLSI agar dilution method; format: functional
Fusobacterium mortiferum [16] = assay: Antibacterial activity against Fusobacterium mortiferum by CLSI agar dilution method; format: functional
[17] = system: Fusobacterium necrophorum; assay: Antibacterial activity against Fusobacterium necrophorum by CLSI agar dilution method; format: functional
Fusobacterium varium [18] = assay: Antibacterial activity against Fusobacterium varium assessed as susceptible isolates by CLSI agar dilution method; format: functional
Fusobacterium nucleatum [19] = assay: Antibacterial activity against Fusobacterium nucleatum assessed as susceptible isolates by CLSI agar dilution method; format: functional
Fusobacterium mortiferum [20] = assay: Antibacterial activity against Fusobacterium mortiferum assessed as susceptible isolates by CLSI agar dilution method; format: functional
[21] = system: Fusobacterium necrophorum; assay: Antibacterial activity against Fusobacterium necrophorum assessed as susceptible isolates by CLSI agar dilution method; format: functional
Fusobacterium varium [22] = assay: Antibacterial activity against Fusobacterium varium assessed as resistant isolates by CLSI agar dilution method; format: functional
Fusobacterium nucleatum [23] = assay: Antibacterial activity against Fusobacterium nucleatum assessed as resistant isolates by CLSI agar dilution method; format: functional
Fusobacterium mortiferum [24] = assay: Antibacterial activity against Fusobacterium mortiferum assessed as resistant isolates by CLSI agar dilution method; format: functional
[25] = system: Fusobacterium necrophorum; assay: Antibacterial activity against Fusobacterium necrophorum assessed as resistant isolates by CLSI agar dilution method; format: functional
Prevotella buccae [26] = assay: Antibacterial activity against Prevotella buccae by CLSI agar dilution method; format: functional; conditions: Segatella buccae
Prevotella bivia [27] = assay: Antibacterial activity against Prevotella bivia by CLSI agar dilution method; format: functional
Prevotella intermedia [28] = assay: Antibacterial activity against Prevotella intermedia by CLSI agar dilution method; format: functional
[29] = system: Prevotella melaninogenica; assay: Antibacterial activity against Prevotella melaninogenica by CLSI agar dilution method; format: functional
Prevotella buccae [30] = assay: Antibacterial activity against Prevotella buccae assessed as susceptible isolates by CLSI agar dilution method; format: functional, Segatella buccae
Prevotella bivia [31] = assay: Antibacterial activity against Prevotella bivia assessed as susceptible isolates by CLSI agar dilution method; format: functional
Prevotella intermedia [32] = assay: Antibacterial activity against Prevotella intermedia assessed as susceptible isolates by CLSI agar dilution method; format: functional
[33] = system: Prevotella melaninogenica; assay: Antibacterial activity against Prevotella melaninogenica assessed as susceptible isolates by CLSI agar dilution method; format: functional
Prevotella buccae [34] = assay: Antibacterial activity against Prevotella buccae assessed as resistant isolates by CLSI agar dilution method; format: functional, Segatella buccae
Prevotella bivia [35] = assay: Antibacterial activity against Prevotella bivia assessed as resistant isolates by CLSI agar dilution method; format: functional
Prevotella intermedia [36] = assay: Antibacterial activity against Prevotella intermedia assessed as resistant isolates by CLSI agar dilution method; format: functional
[37] = system: Prevotella melaninogenica; assay: Antibacterial activity against Prevotella melaninogenica assessed as resistant isolates by CLSI agar dilution method; format: functional
Veillonella parvula = assay: Antibacterial activity against Veillonella parvula by CLSI agar dilution method; format: functional
Clostridium perfringens = assay: microbe, parasite or virus in culture; format: functional
[38] = system: Clostridium paraputrificum; assay: Antibacterial activity against beta-lactamase producing Clostridium paraputrificum by CLSI agar dilution method; format: functional
Clostridium septicum [39] = assay: Antibacterial activity against beta-lactamase producing Clostridium septicum by CLSI agar dilution method; format: functional
Clostridium tertium [40] = assay: Antibacterial activity against beta-lactamase producing Clostridium tertium by CLSI agar dilution method; format: functional
[41] = system: Clostridium paraputrificum; assay: Antibacterial activity against beta-lactamase producing Clostridium paraputrificum assessed as susceptible isolates by CLSI agar dilution method; format: functional
Clostridium septicum [42] = assay: Antibacterial activity against beta-lactamase producing Clostridium septicum assessed as susceptible isolates by CLSI agar dilution method; format: functional
Clostridium tertium [43] = assay: Antibacterial activity against beta-lactamase producing Clostridium tertium assessed as susceptible isolates by CLSI agar dilution method; format: functional
Bacteroides fragilis [44] = assay: Antibacterial activity against Bacteroides fragilis by CLSI agar dilution method; format: functional
[45] = system: Bacteroides thetaiotaomicron; assay: Antibacterial activity against beta-lactamase producing Bacteroides thetaiotaomicron by CLSI agar dilution method; format: functional
[46] = system: Clostridium paraputrificum; assay: Antibacterial activity against beta-lactamase producing Clostridium paraputrificum assessed as resistant isolates by CLSI agar dilution method; format: functional
Clostridium septicum [47] = assay: Antibacterial activity against beta-lactamase producing Clostridium septicum assessed as resistant isolates by CLSI agar dilution method; format: functional
Clostridium tertium [48] = assay: Antibacterial activity against beta-lactamase producing Clostridium tertium assessed as resistant isolates by CLSI agar dilution method; format: functional
[49] = system: Peptostreptococcus anaerobius; assay: Antibacterial activity against beta-lactamase producing Peptostreptococcus anaerobius by CLSI agar dilution method; format: functional
[50] = system: Peptostreptococcus anaerobius; assay: Antibacterial activity against beta-lactamase producing Peptostreptococcus anaerobius assessed as susceptible isolates by CLSI agar dilution method; format: functional
[51] = system: Peptostreptococcus anaerobius; assay: Antibacterial activity against beta-lactamase producing Peptostreptococcus anaerobius assessed as resistant isolates by CLSI agar dilution method; format: functional
Parvimonas micra [52] = assay: Antibacterial activity against beta-lactamase producing Micromonas micros by CLSI agar dilution method; format: functional
Parvimonas micra [53] = assay: Antibacterial activity against beta-lactamase producing Micromonas micros assessed as susceptible isolates by CLSI agar dilution method; format: functional
Parvimonas micra [54] = assay: Antibacterial activity against beta-lactamase producing Micromonas micros assessed as resistant isolates by CLSI agar dilution method; format: functional
[55] = system: Peptoniphilus asaccharolyticus; assay: Antibacterial activity against beta-lactamase producing Peptoniphilus asaccharolyticus by CLSI agar dilution method; format: functional
[56] = system: Peptoniphilus asaccharolyticus; assay: Antibacterial activity against beta-lactamase producing Peptoniphilus asaccharolyticus assessed as susceptible isolates by CLSI agar dilution method; format: functional
[57] = system: Peptoniphilus asaccharolyticus; assay: Antibacterial activity against beta-lactamase producing Peptoniphilus asaccharolyticus assessed as resistant isolates by CLSI agar dilution method; format: functional
Finegoldia magna [58] = assay: Antibacterial activity against beta-lactamase producing Finegoldia magna by CLSI agar dilution method; format: functional
Finegoldia magna [59] = assay: Antibacterial activity against beta-lactamase producing Finegoldia magna assessed as susceptible isolates by CLSI agar dilution method; format: functional
Finegoldia magna [60] = assay: Antibacterial activity against beta-lactamase producing Finegoldia magna assessed as resistant isolates by CLSI agar dilution method; format: functional

C[C@@H](O)[C@H]1C(=O)N2C(C(=O)O)=C(S[C@@H]3CN[C@H](CNS(N)(=O)=O)C3)[C@H](C)[C@H]12 [DORIPENEM]
Activity (Bacteroides fragilis [1]): 88% | Activity (Bacteroides fragilis [2]): 7% | Activity [3]: 97% | Activity [4]: 0% | MIC50 (Phocaeicola vulgatus [5]): 1 µg/mL (≈ 2.38 µM) | MIC90 (Phocaeicola vulgatus [5]): 2 µg/mL (≈ 4.76 µM) | Activity (Phocaeicola vulgatus [6]): 92% | Activity (Phocaeicola vulgatus [7]): 4% | MIC50 (Bacteroides uniformis [8]): 1 µg/mL (≈ 2.38 µM) | MIC90 (Bacteroides uniformis [8]): 2 µg/mL (≈ 4.76 µM) | Activity (Bacteroides uniformis [9]): 92% | Activity (Bacteroides uniformis [10]): 4% | MIC50 (Bacteroides caccae [11]): 1 µg/mL (≈ 2.38 µM) | MIC90 (Bacteroides caccae [11]): 2 µg/mL (≈ 4.76 µM) | Activity (Bacteroides caccae [12]): 92% | Activity (Bacteroides caccae [13]): 4% | MIC50 (Fusobacterium varium [14]): 0.12 µg/mL (≈ 0.285 µM) | MIC90 (Fusobacterium varium [14]): 0.25 µg/mL (≈ 0.595 µM) | MIC50 (Fusobacterium nucleatum [15]): 0.12 µg/mL (≈ 0.285 µM) | MIC90 (Fusobacterium nucleatum [15]): 0.25 µg/mL (≈ 0.595 µM) | MIC50 (Fusobacterium mortiferum [16]): 0.12 µg/mL (≈ 0.285 µM) | MIC90 (Fusobacterium mortiferum [16]): 0.25 µg/mL (≈ 0.595 µM) | MIC50 [17]: 0.12 µg/mL (≈ 0.285 µM) | MIC90 [17]: 0.25 µg/mL (≈ 0.595 µM) | Activity (Fusobacterium varium [18]): 100% | Activity (Fusobacterium nucleatum [19]): 100% | Activity (Fusobacterium mortiferum [20]): 100% | Activity [21]: 100% | Activity (Fusobacterium varium [22]): 0% | Activity (Fusobacterium nucleatum [23]): 0% | Activity (Fusobacterium mortiferum [24]): 0% | Activity [25]: 0% | MIC50 (Prevotella buccae [26]): 0.25 µg/mL (≈ 0.595 µM) | MIC90 (Prevotella buccae [26]): 0.5 µg/mL (≈ 1.19 µM) | MIC50 (Prevotella bivia [27]): 0.25 µg/mL (≈ 0.595 µM) | MIC90 (Prevotella bivia [27]): 0.5 µg/mL (≈ 1.19 µM) | MIC50 (Prevotella intermedia [28]): 0.25 µg/mL (≈ 0.595 µM) | MIC90 (Prevotella intermedia [28]): 0.5 µg/mL (≈ 1.19 µM) | MIC50 [29]: 0.25 µg/mL (≈ 0.595 µM) | MIC90 [29]: 0.5 µg/mL (≈ 1.19 µM) | Activity (Prevotella buccae [30]): 100% | Activity (Prevotella bivia [31]): 100% | Activity (Prevotella intermedia [32]): 100% | Activity [33]: 100% | Activity (Prevotella buccae [34]): 0% | Activity (Prevotella bivia [35]): 0% | Activity (Prevotella intermedia [36]): 0% | Activity [37]: 0% | MIC (Veillonella parvula): 0.06 µg/mL (≈ 0.143 µM) | MIC (Clostridium perfringens): 0.03 µg/mL (≈ 0.0713 µM) | MIC50 (Clostridium perfringens): 0.03 µg/mL (≈ 0.0713 µM) | MIC90 (Clostridium perfringens): 2 µg/mL (≈ 4.76 µM) | MIC [38]: 0.03 µg/mL (≈ 0.0713 µM) | MIC50 [38]: 0.03 µg/mL (≈ 0.0713 µM) | MIC90 [38]: 2 µg/mL (≈ 4.76 µM) | MIC (Clostridium septicum [39]): 0.03 µg/mL (≈ 0.0713 µM) | MIC50 (Clostridium septicum [39]): 0.03 µg/mL (≈ 0.0713 µM) | MIC90 (Clostridium septicum [39]): 2 µg/mL (≈ 4.76 µM) | MIC (Clostridium tertium [40]): 0.03 µg/mL (≈ 0.0713 µM) | MIC50 (Clostridium tertium [40]): 0.03 µg/mL (≈ 0.0713 µM) | MIC90 (Clostridium tertium [40]): 2 µg/mL (≈ 4.76 µM) | Activity [41]: 100% | Activity (Clostridium septicum [42]): 100% | Activity (Clostridium tertium [43]): 100% | MIC50 (Bacteroides fragilis [44]): 0.5 µg/mL (≈ 1.19 µM) | MIC90 (Bacteroides fragilis [44]): 8 µg/mL (≈ 19 µM) | MIC [45]: 0.5 µg/mL (≈ 1.19 µM) | MIC50 [45]: 0.5 µg/mL (≈ 1.19 µM) | MIC90 [45]: 2 µg/mL (≈ 4.76 µM) | Activity [46]: 0% | Activity (Clostridium septicum [47]): 0% | Activity (Clostridium tertium [48]): 0% | MIC50 [49]: 0.06 µg/mL (≈ 0.143 µM) | MIC90 [49]: 0.5 µg/mL (≈ 1.19 µM) | Activity [50]: 100% | Activity [51]: 0% | MIC50 (Parvimonas micra [52]): 0.06 µg/mL (≈ 0.143 µM) | MIC90 (Parvimonas micra [52]): 0.5 µg/mL (≈ 1.19 µM) | Activity (Parvimonas micra [53]): 100% | Activity (Parvimonas micra [54]): 0% | MIC50 [55]: 0.06 µg/mL (≈ 0.143 µM) | MIC90 [55]: 0.5 µg/mL (≈ 1.19 µM) | Activity [56]: 100% | Activity [57]: 0% | MIC50 (Finegoldia magna [58]): 0.06 µg/mL (≈ 0.143 µM) | MIC90 (Finegoldia magna [58]): 0.5 µg/mL (≈ 1.19 µM) | Activity (Finegoldia magna [59]): 100% | Activity (Finegoldia magna [60]): 0%
